Experimental findings from patent US20140249135A1, “PIM KINASE INHIBITORS AND METHODS OF THEIR USE” (NOVARTIS AG, priority 2007, published 2014) are described below.

For test [1], the target named is Pim1 kinase (Homo sapiens, UniProt P11309). The test can be described thus: Pim1 ATP depletion assay.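 Further: Luciferase-luciferin luminescence readout of residual ATP after PIM1 transfers phosphate to a peptide substrate, 40 µM ATP added, reaction run to roughly half ATP consumption.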 It counts as biochemical.
Test [2] concerns the target Pim2 kinase (Homo sapiens, UniProt Q9P1W9). Kind of test: Pim2 ATP depletion assay.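 Further: Luciferase-based luminescent readout of ATP remaining after PIM2 phosphorylates a BAD peptide, final 5 nM enzyme, 4 µM ATP, 10 µM peptide, 2.5% DMSO, run to roughly half ATP consumption.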 The following applies: read-out: IC50 (μM) PIM2. It counts as biochemical.
The target of test [3] is Pim3 kinase (Homo sapiens, UniProt Q86V86). Kind of test: Pim3 ATP depletion assay. It is filed as biochemical. Particulars: read-out: IC50 (μM) PIM3.
The target of test [4] is T1, human full length PKCE enzyme (Homo sapiens, UniProt Q02156).
T1 construct: human full length PKCE enzyme purchased from InVitrogen; purchased InVitrogen
T1 sequence (Q02156 1-737): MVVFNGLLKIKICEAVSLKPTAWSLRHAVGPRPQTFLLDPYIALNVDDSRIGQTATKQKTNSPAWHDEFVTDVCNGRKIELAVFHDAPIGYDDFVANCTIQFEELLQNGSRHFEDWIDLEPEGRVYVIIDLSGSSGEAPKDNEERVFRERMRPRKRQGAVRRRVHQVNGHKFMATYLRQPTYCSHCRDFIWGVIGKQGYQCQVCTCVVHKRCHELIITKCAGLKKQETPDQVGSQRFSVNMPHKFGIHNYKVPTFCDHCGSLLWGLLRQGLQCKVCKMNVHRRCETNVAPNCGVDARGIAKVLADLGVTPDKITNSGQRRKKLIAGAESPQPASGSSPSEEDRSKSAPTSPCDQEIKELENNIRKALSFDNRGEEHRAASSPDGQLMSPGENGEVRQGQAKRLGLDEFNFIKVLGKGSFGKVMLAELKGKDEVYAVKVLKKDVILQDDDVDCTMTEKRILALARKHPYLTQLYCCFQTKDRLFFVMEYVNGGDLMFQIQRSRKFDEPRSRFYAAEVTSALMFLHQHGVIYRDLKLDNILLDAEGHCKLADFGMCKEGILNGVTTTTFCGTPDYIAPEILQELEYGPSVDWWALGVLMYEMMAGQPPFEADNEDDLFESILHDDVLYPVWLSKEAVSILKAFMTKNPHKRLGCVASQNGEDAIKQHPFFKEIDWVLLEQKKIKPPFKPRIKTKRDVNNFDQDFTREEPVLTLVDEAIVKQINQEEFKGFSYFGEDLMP
The test can be described thus: In vitro PKCE assay. It is filed as biochemical. Particulars: 10 nM enzyme, 40 uM peptide substrate, 20 uM ATP, KinaseGlo Plus readout; read-out: PKCε IC50. A general note: In Kinase-Glo more light means more ATP remaining.

The target of test [5] is KDR kinase (Homo sapiens, UniProt P35968). Kind of test: KDR AlphaScreen assay. Particulars: KDR IC50 (μM). On the technique in general: Alpha assays give light when donor and acceptor beads are brought close together.
[6] abbreviates: Pim1 ATP depletion assay, read-out: IC50 (μM) PIM1.

Where “and” joins values, the source holds several entries; their conditions need not be identical. Identical values can stand only once. Like-named read-outs stand apart in the source and are kept apart here. Bounds are passed on as bounds.

Sequence of Pim1 kinase (P11309 whole entry): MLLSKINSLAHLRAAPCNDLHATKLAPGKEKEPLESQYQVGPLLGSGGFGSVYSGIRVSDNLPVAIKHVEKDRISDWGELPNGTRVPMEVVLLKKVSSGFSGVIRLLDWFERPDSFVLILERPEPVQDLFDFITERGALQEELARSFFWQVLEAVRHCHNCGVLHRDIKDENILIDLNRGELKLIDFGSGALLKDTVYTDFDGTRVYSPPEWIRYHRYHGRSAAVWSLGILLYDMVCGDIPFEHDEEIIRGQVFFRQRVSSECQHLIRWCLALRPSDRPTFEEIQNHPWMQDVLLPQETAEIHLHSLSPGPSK
Sequence of KDR kinase (P35968 20-1356): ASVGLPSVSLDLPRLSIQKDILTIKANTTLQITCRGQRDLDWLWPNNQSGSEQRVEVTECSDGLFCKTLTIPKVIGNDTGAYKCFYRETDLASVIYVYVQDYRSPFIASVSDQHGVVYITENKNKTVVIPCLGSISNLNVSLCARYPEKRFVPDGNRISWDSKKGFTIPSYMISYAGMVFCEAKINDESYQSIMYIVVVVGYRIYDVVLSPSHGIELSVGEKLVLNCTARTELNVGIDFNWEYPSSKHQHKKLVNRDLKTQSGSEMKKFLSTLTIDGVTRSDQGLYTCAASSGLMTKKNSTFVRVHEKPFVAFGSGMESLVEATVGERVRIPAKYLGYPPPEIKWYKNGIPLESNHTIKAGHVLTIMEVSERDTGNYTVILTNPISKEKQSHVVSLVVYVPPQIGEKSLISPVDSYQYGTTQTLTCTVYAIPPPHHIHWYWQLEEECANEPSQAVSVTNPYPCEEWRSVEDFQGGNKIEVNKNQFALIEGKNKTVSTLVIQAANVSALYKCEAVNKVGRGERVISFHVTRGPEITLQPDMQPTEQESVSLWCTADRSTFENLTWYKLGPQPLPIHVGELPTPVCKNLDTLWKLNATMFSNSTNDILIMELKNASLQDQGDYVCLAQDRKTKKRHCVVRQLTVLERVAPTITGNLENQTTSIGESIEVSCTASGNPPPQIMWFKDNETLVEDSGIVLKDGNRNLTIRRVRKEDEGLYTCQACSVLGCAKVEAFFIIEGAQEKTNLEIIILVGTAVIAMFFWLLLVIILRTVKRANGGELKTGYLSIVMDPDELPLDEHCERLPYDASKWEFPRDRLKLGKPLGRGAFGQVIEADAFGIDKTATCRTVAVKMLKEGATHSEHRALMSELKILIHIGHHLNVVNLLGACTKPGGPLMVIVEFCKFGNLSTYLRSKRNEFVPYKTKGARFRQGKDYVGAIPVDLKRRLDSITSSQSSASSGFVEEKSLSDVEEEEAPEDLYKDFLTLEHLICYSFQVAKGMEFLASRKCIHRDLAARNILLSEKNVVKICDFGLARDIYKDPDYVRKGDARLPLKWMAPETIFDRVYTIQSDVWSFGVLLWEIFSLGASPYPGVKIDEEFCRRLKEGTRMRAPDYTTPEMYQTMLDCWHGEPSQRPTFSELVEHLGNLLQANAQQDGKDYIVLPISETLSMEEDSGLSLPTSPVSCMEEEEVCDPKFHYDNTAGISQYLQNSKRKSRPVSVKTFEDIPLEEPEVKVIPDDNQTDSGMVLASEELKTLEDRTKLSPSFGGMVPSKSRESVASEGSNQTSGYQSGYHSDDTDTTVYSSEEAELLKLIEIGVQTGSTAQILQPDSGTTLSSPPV
Sequence of Pim2 kinase (Q9P1W9 whole entry): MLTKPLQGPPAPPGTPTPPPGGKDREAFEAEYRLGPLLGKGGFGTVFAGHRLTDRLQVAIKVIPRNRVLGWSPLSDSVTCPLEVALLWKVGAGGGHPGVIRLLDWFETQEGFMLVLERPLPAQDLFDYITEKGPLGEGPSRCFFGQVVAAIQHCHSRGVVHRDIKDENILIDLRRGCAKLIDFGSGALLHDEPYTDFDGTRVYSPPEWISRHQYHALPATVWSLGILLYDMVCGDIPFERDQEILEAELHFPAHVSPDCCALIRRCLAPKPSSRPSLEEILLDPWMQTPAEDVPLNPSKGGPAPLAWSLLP

Regarding `Nc1ncc(Br)nc1C(=O)Nc1[nH]c(=O)ncc1N1CCCCC1` [Example 132, 3-amino-6-bromo-N-(2-oxo-5-piperidin-1-yl-2,3-dihydro-pyrimidin-4-yl)pyrazine-2-carboxamide], the IC50 in test [1] (setting [6]), in test [2], in test [3], in test [4] and in test [5] was less than 1 µM each time.
In the case of `NC(=O)c1ccc(N2CCCCC2)c(NC(=O)c2nc(Br)cnc2N)c1` [Example 133, 3-amino-6-bromo-N-(5-carbamoyl-2-piperidin-1-yl-phenyl)pyrazine-2-carboxamide], the IC50 is less than 1 µM in test [1] (setting [6]); less than 1 µM in test [2]; less than 1 µM in test [3]; greater than 25 µM in test [4]; 1 to 10 µM in test [5].
In the case of `Nc1nc(N)c(C(=O)Nc2[nH]c(=O)ncc2N2CCCC(N)C2)nc1Cl` (stereo not drawn) [Example 134, 3,5-diamino-N-[5-(3-amino-piperidin-1-yl)-2-oxo-2,3-dihydropyrimidin-4-yl]-6-chloropyrazine-2-carboxamide], the IC50 in test [1] (setting [6]) was less than 1 µM; in test [2], less than 1 µM; in test [3], less than 1 µM; in test [4] it was 1 to 10 µM; in test [5] it was 1 to 10 µM.
Consider `NCC1CCCN(c2cnc(=O)[nH]c2NC(=O)c2nccnc2N)C1` (stereo not drawn) [Example 135, 3-amino-N-{5-[3-(amino-methyl)piperidin-1-yl]-2-oxo-2,3-dihydropyrimidin-4-yl}-pyrazine-2-carboxamide], for which the IC50 in test [1] (setting [6]) is less than 1 µM; in test [2], less than 1 µM; in test [3], less than 1 µM; in test [4], less than 1 µM; in test [5], 1 to 10 µM.
As for `NCC(=O)N1CCN(c2ccncc2NC(=O)c2nc(Cl)c(N)nc2N)CC1` [Example 186, 3,5-diamino-N-{4-[4-(amino-acetyl)piperazin-1-yl]pyridin-3-yl}-6-chloropyrazine-2-carboxamide], the 50% inhibitory concentration (IC50) in test [1] (setting [6]) was less than 1 µM; in test [2], less than 1 µM; in test [3], less than 1 µM; in test [4], 1 to 10 µM; in test [5], 1 to 10 µM.
In the case of `NCCC(=O)N1CCN(c2ccncc2NC(=O)c2nccnc2N)CC1` [Example 188, 3-amino-N-{4-[4-(3-aminopropanoyl)piperazin-1-yl]pyridin-3-yl}pyrazine-2-carboxamide], the IC50 in test [1] is less than 1 µM; in test [2], 1 to 10 µM; in test [3], less than 1 µM; in test [4], less than 1 µM; in test [5], 1 to 10 µM.
As for `Nc1nccnc1C(=O)Nc1cccnc1N1CCCC(N)C1` (stereo not drawn) [Example 196, 3-amino-N-[2-(3-aminopiperidin-1-yl)pyridin-3-yl]pyrazine-2-carboxamide], the IC50 was 1 to 10 µM in test [1] (setting [6]); 10 to 25 µM in test [2]; 1 to 10 µM in test [3]; 1 to 10 µM in test [4]; greater than 25 µM in test [5].
Consider `Nc1nccnc1C(=O)Nc1cnccc1N1CCCNCC1` [Example 199, 3-amino-N-[4-(1,4-diazepan-1-yl)pyridin-3-yl]pyrazine-2-carboxamide], for which the IC50 in test [1] (setting [6]) is 1 to 10 µM; in test [2] it was greater than 25 µM; in test [3], > 25 µM and 10 to 25 µM; in test [4], 1 to 10 µM; in test [5], 1 to 10 µM.
`Nc1ncc(Br)nc1C(=O)Nc1ccccc1N1CCCC(N)C1` (stereo not drawn) [Example 204, 3-amino-N-[2-(3-aminopiperidin-1-yl)phenyl]-6-bromopyrazine-2-carboxamide]: the IC50 was less than 1 µM in test [1] (setting [6]); less than 1 µM in test [2]; less than 1 µM in test [3]; less than 1 µM in test [4]; 1 to 10 µM in test [5].
Regarding `Nc1ncc(Br)nc1C(=O)Nc1ccccc1N1CCNCC1` [Example 206, 3-amino-6-bromo-N-(2-piperazin-1-ylphenyl)pyrazine-2-carboxamide], the concentration for half-maximal inhibition (IC50) was less than 1 µM in test [1] (setting [6]); 1 to 10 µM in test [2]; less than 1 µM in test [3]; less than 1 µM in test [4]; 1 to 10 µM in test [5].
`COc1ccc(N2CCC(N)CC2)c(NC(=O)c2nc(Br)cnc2N)c1` [Example 211, 3-amino-N-[2-(4-aminopiperidin-1-yl)-5-methoxyphenyl]-6-bromopyrazine-2-carboxamide]: the IC50 is less than 1 µM in test [1] (setting [6]); less than 1 µM in test [2]; less than 1 µM in test [3]; less than 1 µM in test [4]; 1 to 10 µM in test [5].
Consider `COc1ccc(N2CCCC(N)C2)c(NC(=O)c2nc(Br)cnc2N)c1` (stereo not drawn) [Example 212, 3-amino-N-[2-(3-aminopiperidin-1-yl)-5-methoxyphenyl]-6-bromopyrazine-2-carboxamide], for which the IC50 was less than 1 µM in test [1] (setting [6]); less than 1 µM in test [2]; less than 1 µM in test [3]; less than 1 µM in test [4]; 10 to 25 µM in test [5].
In the case of `Nc1nccnc1C(=O)Nc1cc(Cl)ccc1N1CCNCC1` [Example 213, 3-amino-N-(5-chloro-2-piperazin-1-ylphenyl)pyrazine-2-carboxamide], the IC50 in test [1] (setting [6]) was 1 to 10 µM; in test [2], greater than 25 µM; in test [3], 1 to 10 µM; in test [4] it was 1 to 10 µM; in test [5] it was greater than 25 µM.
Take `Nc1nccnc1C(=O)Nc1cc(Cl)ccc1N1CCCC(N)C1` (stereo not drawn) [Example 215, 3-amino-N-[2-(3-aminopiperidin-1-yl)-5-chlorophenyl]pyrazine-2-carboxamide]: the IC50 in test [1] (setting [6]) is less than 1 µM; in test [2], 1 to 10 µM; in test [3] it was less than 1 µM; in test [4], 1 to 10 µM; in test [5], greater than 25 µM.
On to `Cc1ccc(N2CCNCC2)c(NC(=O)c2nccnc2N)c1` [Example 216, 3-amino-N-(5-methyl-2-piperazin-1-ylphenyl)pyrazine-2-carboxamide], for which the half-inhibitory concentration (IC50) in test [1] (setting [6]) was 1 to 10 µM; in test [2], greater than 25 µM; in test [3], 1 to 10 µM; in test [4], 1 to 10 µM; in test [5] it was greater than 25 µM.
For the molecule `Cc1ccc(N2CCCC(N)C2)c(NC(=O)c2nccnc2N)c1` (stereo not drawn) [Example 218, 3-amino-N-[2-(3-aminopiperidin-1-yl)-5-methylphenyl]pyrazine-2-carboxamide], the IC50 is less than 1 µM in test [1] (setting [6]); 10 to 25 µM in test [2]; less than 1 µM in test [3]; 1 to 10 µM in test [4]; greater than 25 µM in test [5].
In the case of `CC(=O)c1ccc(N2CCNCC2)c(NC(=O)c2nccnc2N)c1` [Example 219, N-(5-acetyl-2-piperazin-1-yl-phenyl)-3-aminopyrazine-2-carboxamide], the IC50 in test [1] (setting [6]) was less than 1 µM; in test [2], 10 to 25 µM; in test [3], less than 1 µM; in test [4], 1 to 10 µM; in test [5], greater than 25 µM.
As to `COc1ccc(N2CCCC(N)C2)c(NC(=O)c2nccnc2N)c1` (stereo not drawn) [Example 223, 3-amino-N-[2-(3-aminopiperidin-1-yl)-5-methoxyphenyl]pyrazine-2-carboxamide], the IC50 in test [1] (setting [6]) was less than 1 µM; in test [2], 1 to 10 µM; in test [3] it was less than 1 µM; in test [4] it was less than 1 µM; in test [5] it was greater than 25 µM.

In general, IC50 refers to the midpoint of a concentration-inhibition curve.
